In one experiment the target is T1, human D4.4 (Homo sapiens, UniProt P21917).
T1 sequence (P21917 1-419): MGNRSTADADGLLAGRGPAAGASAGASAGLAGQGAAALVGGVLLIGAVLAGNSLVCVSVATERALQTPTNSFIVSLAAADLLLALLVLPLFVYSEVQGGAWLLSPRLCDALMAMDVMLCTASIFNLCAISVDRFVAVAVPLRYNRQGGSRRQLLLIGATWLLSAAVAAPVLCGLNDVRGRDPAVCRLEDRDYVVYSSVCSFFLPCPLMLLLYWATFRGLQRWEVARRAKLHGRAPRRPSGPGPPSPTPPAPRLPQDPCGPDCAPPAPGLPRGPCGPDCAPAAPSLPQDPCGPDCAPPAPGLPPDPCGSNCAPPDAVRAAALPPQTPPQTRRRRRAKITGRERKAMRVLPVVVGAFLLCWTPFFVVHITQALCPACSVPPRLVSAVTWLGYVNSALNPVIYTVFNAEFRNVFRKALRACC
Put plainly: radioligand binding assay, dopamine D4.4 receptor, [3H]spiperone. The conditions noted are these: CHO cell membranes, mean of two to five experiments in triplicate, read-out: Ki D4.4. From the text:
(§1) Biological activity of the compounds has been determined in radioligand binding assays. These experiments have been done according to methods which are described in literature (Hübner, H. et al., J. Med. Chem. (2000), 43, 7562). For the determination of binding affinity to the receptors of the dopamine D2 family membranes were established carrying the human D2long, D2short, D3 or D4.4 receptor subtype stably expressed in Chinese hamster ovary cell lines. In principle, the binding experiments started when incubating an appropriate amount of membrane with the radioligand [^3H]spiperone and the particular test compounds used in a wide range of different concentrations from subnanomolar up to micromolar ones. In the same way, binding affinities of the test compounds to the dopamine D1 receptor were determined when using native membrane preparations from porcine striatum and the D1 selective radioligand [^3H]SCH 23390.
(§2) The results of the binding experiments are summarized in Table 1 as mean values of two to five individual experiments each done in triplicate and expressed as Ki values in nM.

For a further experiment, the target named is human D3 (Homo sapiens, UniProt P35462). The experiment is described as follows: radioligand binding assay, dopamine D3 receptor, [3H]spiperone. The following applies: CHO cell membranes, mean of two to five experiments in triplicate, read-out: Ki D3. As for the experimental part: as §1, with “These” for “Biological activity of the compounds has been determined in radioligand binding assays. These”, “ones.” for “ones. In the same way, binding affinities of the test compounds to the dopamine D1 receptor were determined when using native membrane preparations from porcine striatum and the D1 selective radioligand [^3H]SCH 23390.”

The next experiment has as its target T2, dopamine D1 receptor (Sus scrofa, UniProt P50130).
T2 construct: native membrane preparations from porcine striatum; from tissue; host or cells: porcine striatum
Put plainly: radioligand binding assay, dopamine D1 receptor, [3H]SCH 23390. The following applies: porcine striatum membranes, mean of two to five experiments in triplicate, read-out: Ki D1.
Text: as §1, §2

In another experiment the target is T3, 5-HT2 (Sus scrofa, UniProt P50129).
T3 construct: membrane preparations from porcine cortex; from tissue; host or cells: porcine cortex
The experiment is described as follows: radioligand binding assay, serotonin 5-HT2 receptor, [3H]ketanserin. Set-up: species or system porcine.

The target in a further experiment is T4, 5-HT1A (Sus scrofa, UniProt A0A4X1UTF5).
T4 construct: membrane preparations from porcine cortex; from tissue; host or cells: porcine cortex
T4 sequence (A0A4X1UTF5 1-422): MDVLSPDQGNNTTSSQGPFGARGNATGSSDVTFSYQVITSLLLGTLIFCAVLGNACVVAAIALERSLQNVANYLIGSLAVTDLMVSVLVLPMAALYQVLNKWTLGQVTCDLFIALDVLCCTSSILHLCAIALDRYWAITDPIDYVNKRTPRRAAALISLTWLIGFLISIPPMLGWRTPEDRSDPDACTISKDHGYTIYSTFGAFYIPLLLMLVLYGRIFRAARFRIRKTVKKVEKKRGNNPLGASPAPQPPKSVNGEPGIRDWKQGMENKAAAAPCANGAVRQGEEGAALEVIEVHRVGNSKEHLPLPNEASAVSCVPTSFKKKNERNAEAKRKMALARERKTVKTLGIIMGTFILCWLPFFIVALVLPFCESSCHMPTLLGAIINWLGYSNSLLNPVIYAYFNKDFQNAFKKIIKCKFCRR
The experiment is described as follows: radioligand binding assay, serotonin 5-HT1A receptor, [3H]WAY 100635. The following applies: porcine cortex membranes, mean of two to five experiments in triplicate, read-out: Ki 5-HT1a. As for the experimental part:
(§3) The investigation of receptor binding to the serotonin and adrenergic receptors was done according to a published procedure (Heindl, C. et al., Tetrahedron: Asymmetry (2003), 14, 3141-3152). In detail, for the determination of the binding properties to serotonin receptors membrane preparations from porcine cortex was incubated with the 5-HT1A selective radioligand [^3H]WAY 100635 or with the 5-HT2 selective compound [^3H]ketanserin. The measurement of alpha-1 and alpha-2 receptor binding was achieved when utilizing porcine cortical membranes and the selective radioligands [^3H]prazosin (for alpha-1) and [^3H]RX821002 in an assay similar to that described above.
as §2

The target of another experiment is human D2long, D2short (Homo sapiens, UniProt P14416). The experiment is described as follows: biochemical. Format: binding. The conditions noted are these: CHO cell membranes, [3H]spiperone; mean of two to five experiments in triplicate; read-out: Ki D2. As for the experimental part: as §1, with “These” for “Biological activity of the compounds has been determined in radioligand binding assays. These”, “ones.” for “ones. In the same way, binding affinities of the test compounds to the dopamine D1 receptor were determined when using native membrane preparations from porcine striatum and the D1 selective radioligand [^3H]SCH 23390.”

For a further experiment, the target named is alpha-1. The experiment is described as follows: radioligand binding assay, adrenergic alpha-1 receptor, [3H]prazosin. The following applies: porcine cortical membranes, mean of two to five experiments in triplicate, read-out: Ki alpha1. As for the experimental part:
as §3, §2

Setting [1] is: porcine cortex membranes, [3H]ketanserin, mean of two to five experiments in triplicate, read-out: Ki 5-HT2.

Each structure is given as a SMILES string. Where two headings read alike, the source gives them in different places.

A word on the Ki: it is a dissociation constant, usually derived from enzyme kinetics or from competition with a known ligand.

Sequence of human D2long, D2short (P14416 whole entry): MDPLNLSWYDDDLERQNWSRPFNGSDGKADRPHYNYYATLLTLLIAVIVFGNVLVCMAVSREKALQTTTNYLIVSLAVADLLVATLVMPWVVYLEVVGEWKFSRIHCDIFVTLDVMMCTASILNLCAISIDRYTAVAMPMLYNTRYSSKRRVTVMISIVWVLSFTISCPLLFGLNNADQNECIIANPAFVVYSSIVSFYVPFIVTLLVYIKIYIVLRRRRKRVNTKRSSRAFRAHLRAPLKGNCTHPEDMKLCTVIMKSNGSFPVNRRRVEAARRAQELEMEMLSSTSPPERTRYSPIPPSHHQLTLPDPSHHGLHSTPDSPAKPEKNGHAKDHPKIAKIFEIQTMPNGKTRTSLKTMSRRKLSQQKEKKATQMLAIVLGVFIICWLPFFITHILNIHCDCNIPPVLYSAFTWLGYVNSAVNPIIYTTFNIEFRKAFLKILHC
T3 sequence (P50129 whole entry): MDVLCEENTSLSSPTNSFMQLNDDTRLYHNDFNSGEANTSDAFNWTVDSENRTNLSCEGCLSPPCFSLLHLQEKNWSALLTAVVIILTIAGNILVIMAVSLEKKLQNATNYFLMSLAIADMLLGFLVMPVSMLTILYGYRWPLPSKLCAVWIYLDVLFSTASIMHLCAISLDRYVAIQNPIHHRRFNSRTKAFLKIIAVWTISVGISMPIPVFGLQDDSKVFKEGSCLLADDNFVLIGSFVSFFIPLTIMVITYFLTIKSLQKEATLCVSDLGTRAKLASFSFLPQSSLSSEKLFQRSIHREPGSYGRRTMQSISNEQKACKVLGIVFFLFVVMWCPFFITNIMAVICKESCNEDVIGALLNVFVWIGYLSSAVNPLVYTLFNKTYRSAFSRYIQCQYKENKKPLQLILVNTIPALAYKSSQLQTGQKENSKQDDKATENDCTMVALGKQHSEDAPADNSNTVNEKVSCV
Sequence of human D3 (P35462 whole entry): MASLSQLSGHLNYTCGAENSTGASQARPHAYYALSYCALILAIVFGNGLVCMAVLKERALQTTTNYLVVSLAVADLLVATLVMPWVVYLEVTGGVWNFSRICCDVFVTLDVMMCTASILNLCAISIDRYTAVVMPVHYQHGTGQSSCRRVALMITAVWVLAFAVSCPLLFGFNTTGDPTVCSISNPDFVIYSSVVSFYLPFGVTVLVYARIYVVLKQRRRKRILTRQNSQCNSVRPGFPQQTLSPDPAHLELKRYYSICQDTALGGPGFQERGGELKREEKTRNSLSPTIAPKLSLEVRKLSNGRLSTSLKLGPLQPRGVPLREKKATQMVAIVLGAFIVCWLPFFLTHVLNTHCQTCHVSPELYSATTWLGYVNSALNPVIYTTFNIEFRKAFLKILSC
T2 sequence (P50130 whole entry): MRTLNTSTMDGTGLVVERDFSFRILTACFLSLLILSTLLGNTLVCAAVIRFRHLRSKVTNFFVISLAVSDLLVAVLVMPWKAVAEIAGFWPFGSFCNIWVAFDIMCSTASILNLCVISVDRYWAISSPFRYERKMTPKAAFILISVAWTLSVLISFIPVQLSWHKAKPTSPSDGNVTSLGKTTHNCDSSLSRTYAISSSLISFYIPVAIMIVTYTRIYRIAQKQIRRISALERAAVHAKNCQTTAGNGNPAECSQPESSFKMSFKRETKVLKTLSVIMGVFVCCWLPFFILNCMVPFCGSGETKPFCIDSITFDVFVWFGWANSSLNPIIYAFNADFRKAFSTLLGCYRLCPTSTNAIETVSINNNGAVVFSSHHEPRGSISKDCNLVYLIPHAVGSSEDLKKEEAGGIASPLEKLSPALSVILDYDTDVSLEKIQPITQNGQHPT

Consider `Cc1ccc(CNCC2(F)CCN(C(=O)c3ccc(-c4ccccn4)s3)CC2)nc1` [Example E14, [4-Fluoro-4-[[(5-methylpyridin-2-ylmethyl)amino]methyl]piperidin-1-yl]-5-pyridin-2-ylthien-2-yl-methanone], for which the inhibitory constant (Ki) on human D4.4 was above 5 µM; on human D3, above 5 µM; at dopamine D1 receptor, above 5 µM; at 5-HT2 (setting [1]), 0.501 to 5 µM; at 5-HT1A, 0.05 to 0.5 µM; on human D2long, D2short, above 5 µM. Further, the Ki at alpha-1 fell in the range of 0.501 to 5 µM.
On to `Cc1ccc(CNCC2(F)CCN(C(=O)c3ccc(-c4cccs4)s3)CC2)nc1` [Example E15, [2,2']Bithien-5-yl-[4-fluoro-4-[[(5-methylpyridin-2-ylmethyl)amino]methyl]piperidin-1-yl]-methanone], for which the inhibition constant (Ki) on human D4.4 is above 5 µM; at human D3 it was 0.501 to 5 µM; at dopamine D1 receptor, above 5 µM; at 5-HT2 it was 0.501 to 5 µM; on 5-HT1A, 0.05 to 0.5 µM; on human D2long, D2short, above 5 µM. In addition, the Ki at alpha-1 was in the range of 0.501 to 5 µM.
`Cc1ccc(CNCC2(F)CCN(C(=O)c3ccc(-c4csc(C)n4)s3)CC2)nc1` [Example E16, [4-Fluoro-4-[[(5-methylpyridin-2-ylmethyl)amino]methyl]piperidin-1-yl]-5-(2-methylthiazol-4-yl)thien-2-yl-methanone]: the Ki was above 5 µM on human D4.4; 0.501 to 5 µM at human D3; above 5 µM at dopamine D1 receptor; above 5 µM at 5-HT2 (setting [1]); 0.05 to 0.5 µM at 5-HT1A; above 5 µM on human D2long, D2short. Also, the Ki at alpha-1 lay within 0.501 to 5 µM.
As for `Cc1ccc(CNCC2(F)CCN(C(=O)c3sccc3-n3cccc3)CC2)nc1` [Example E17, [4-Fluoro-4-[[(5-methylpyridin-2-ylmethyl)amino]methyl]piperidin-1-yl]-3-pyrrol-1-ylthion-2-yl-methanone], the Ki on human D4.4 is 0.501 to 5 µM; at human D3 it was above 5 µM; at dopamine D1 receptor, above 5 µM; on 5-HT2, above 5 µM; at 5-HT1A, 0.05 to 0.5 µM; on human D2long, D2short, above 5 µM. The Ki on alpha-1 lay in the range of 0.501 to 5 µM.
As for `Cc1ccc(CNCC2(F)CCN(C(=O)c3cc4cc(Br)ccc4s3)CC2)nc1` [Example E24, 5-Bromobenzo[b]thien-2-yl-[4-fluoro-4-[[(5-methylpyridin-2-ylmothyl)amino]methyl]piporidin-1-yl]-methanone], the Ki was 0.501 to 5 µM on human D4.4; 0.501 to 5 µM on human D3; above 5 µM at dopamine D1 receptor; above 5 µM at 5-HT2; 0.05 to 0.5 µM on 5-HT1A; above 5 µM on human D2long, D2short. Moreover, at alpha-1, the Ki lay within 0.05 to 0.5 µM.
Turning to `Cc1ccc(CNCC2(F)CCN(C(=O)c3sc(Br)c4c3OCCO4)CC2)nc1` [Example E30, 7-Bromo-2,3-dihydrothieno[3,4-b][1,4]dioxin-5-yl-[4-fluoro-4-[[5-methylpyridin-2-ylmethyl)aminolmothyl]piperidin-1-yl]-methanone], the Ki was 0.501 to 5 µM on human D4.4; 0.501 to 5 µM on human D3; above 5 µM at dopamine D1 receptor; above 5 µM on 5-HT2; below 0.05 µM at 5-HT1A; above 5 µM on human D2long, D2short. The Ki at alpha-1 was in the range of 0.501 to 5 µM.
With `Cc1ccc(CNCC2(F)CCN(C(=O)c3ccsc3Br)CC2)nc1` [Example E19, 2-Bromothien-3-yl-[4-fluoro-4-[[(5-methylpyridin-2-ylmethyl)amino]methyl]piperidin-1-yl]-methanone], the Ki on human D4.4 is 0.501 to 5 µM; at human D3, above 5 µM; at dopamine D1 receptor, above 5 µM; at 5-HT2 (setting [1]) it was above 5 µM; on 5-HT1A, below 0.05 µM; at human D2long, D2short, above 5 µM. Further, at alpha-1, the Ki lay within 0.501 to 5 µM.
`Cc1ccc(CNCC2(F)CCN(C(=O)c3ccoc3)CC2)nc1` [Example E33, [4-Fluoro-4-[[(5-methylpyridin-2-ylmethyl)amino]methyl]piperidin-1-yl]-furan-3-yl-methanone]: the Ki at human D4.4 is above 5 µM; at human D3, above 5 µM; on dopamine D1 receptor, above 5 µM; at 5-HT2 (setting [1]), above 5 µM; at 5-HT1A, 0.05 to 0.5 µM; at human D2long, D2short it was above 5 µM. Besides, at alpha-1, the Ki is above 5 µM.
For `COc1c(C(=O)N2CCC(F)(CNCc3ccc(C)cn3)CC2)csc1Br` [Example E22, 5-Bromo-4-methoxythion-3-yl-[4-fluoro-4-[[(5-methylpyridin-2-ylmethyl)amino]methyl]piperidin-1-yl]-methanone], the Ki on human D4.4 was 0.501 to 5 µM; at human D3, above 5 µM; on dopamine D1 receptor, above 5 µM; at 5-HT2 it was above 5 µM; at 5-HT1A it was below 0.05 µM; at human D2long, D2short, above 5 µM. The Ki on alpha-1 is 0.501 to 5 µM.
On to `Cc1ccc(CNCC2(F)CCN(C(=O)c3sc4sccc4c3Cl)CC2)nc1` [Example E28, 3-Chlorothieno[2,3-b]thion-2-yl-[4-fluoro-4-[[(5-methylpyridin-2-ylmothyl)amino]methyl]piperidin-1-yl]-mothanone], for which the Ki is 0.05 to 0.5 µM at human D4.4; 0.501 to 5 µM on human D3; above 5 µM at dopamine D1 receptor; above 5 µM on 5-HT2; below 0.05 µM on 5-HT1A; 0.501 to 5 µM on human D2long, D2short. The Ki at alpha-1 fell in the range of 0.501 to 5 µM.
In the case of `Cc1ccc(CNCC2(F)CCN(C(=O)c3cc4ccccc4o3)CC2)nc1` [Example E35, Benzo[b]furan-2-yl-[4-fluoro-4-[[(5-methylpyridin-2-ylmothyl)amino]methyl]piperidin-1-yl]-methanone], the inhibitory constant (Ki) was 0.501 to 5 µM on human D4.4; above 5 µM on human D3; above 5 µM on dopamine D1 receptor; above 5 µM on 5-HT2; 0.05 to 0.5 µM on 5-HT1A; above 5 µM on human D2long, D2short. On alpha-1, the Ki is 0.501 to 5 µM.
For the compound `Cc1ccc(CNCC2(F)CCN(C(=O)c3ccc(-c4ccccc4)s3)CC2)nc1` [Example E13, [4-Fluoro-4-[[(5-methylpyridin-2-ylmethyl)amino]methyl]piperidin-1-yl]-5-phenylthien-2-yl-mathanone], the Ki on human D4.4 is above 5 µM; at human D3 it was 0.501 to 5 µM; at dopamine D1 receptor, above 5 µM; on 5-HT2, 0.501 to 5 µM; on 5-HT1A it was 0.05 to 0.5 µM; at human D2long, D2short, 0.501 to 5 µM. Moreover, the Ki on alpha-1 fell in the range of 0.501 to 5 µM.
